Entries after “also recorded” stand apart in the source; their conditions may differ.
Experiments:
[1] = test system: neutrophil emigration into the cremaster tissue; test: Intravital microscopy of cremaster muscle after intrascrotal injection; assay type: in vivo, mice; details: for inhibitory properties toward LPS-induced neutrophil emigration: LPS 10 ng/g plus ligand 5 ng/g, 4.5 hours; for neutrophil recruitment induced by the ligand itself: wild-type mice, intrascrotal injection, 4.5 hr; for effect of antagonist pretreatment on LTA and GML inhibition of TNFα-induced neutrophil recruitment: 0.5 μg, 1.5 hr pre-treatment
Procedure: Intravital microscopy was performed on male mice, anaesthetized with an intraperitoneal injection of a 10 mg/kg xylazine (Bayer) and 200 mg/kg ketamine hydrochloride (Rogar/STB). The left jugular vein was cannulated to administer additional anaesthetic when necessary. An incision in the scrotal skin exposed the left cremaster muscle, which was then carefully dissected free of the associated fascia. The cremaster muscle was cut longitudinally with a cautery pen. The testicle and the epididymis were then separated from the underlying muscle and were moved into the abdominal cavity. The muscle was held flat on an optically clear viewing pedestal and was secured along the edges with 4-0 suture. The exposed tissue was superfused with 37° C.-warmed bicarbonate-buffered saline (pH 7.4). An upright microscope (Mikron; Carl Zeiss) was used to examine the cremasteric microcirculation and a video camera (XR/MEGA10-AM or XR/MEGA10 Panasonic) and DVD recorder were used to capture images. Three to five cremasteric venules (25 to 40 μm in diameter) were analysed during playback analysis. A leukocyte was considered to be adherent if it remained stationary for at least 30 seconds, and total leukocyte adhesion was quantified as the number of adherent cells within a 100-μm length of venule. Leukocyte emigration was defined as the number of cells in the extravascular space within the field of view adjacent to the observed venule.

[2] = test system: MIP2-induced neutrophil emigration; test: Intravital microscopy of exteriorized cremaster superfused with MIP2; assay type: in vivo, mice; details: 0.5 μg, 1.5 hr pre-treatment; superfusion 60 min
Procedure: Intravital microscopy was performed on male mice, anaesthetized with an intraperitoneal injection of a 10 mg/kg xylazine (Bayer) and 200 mg/kg ketamine hydrochloride (Rogar/STB). The left jugular vein was cannulated to administer additional anaesthetic when necessary. An incision in the scrotal skin exposed the left cremaster muscle, which was then carefully dissected free of the associated fascia. The cremaster muscle was cut longitudinally with a cautery pen. The testicle and the epididymis were then separated from the underlying muscle and were moved into the abdominal cavity. The muscle was held flat on an optically clear viewing pedestal and was secured along the edges with 4-0 suture. The exposed tissue was superfused with 37° C.-warmed bicarbonate-buffered saline (pH 7.4). An upright microscope (Mikron; Carl Zeiss) was used to examine the cremasteric microcirculation and a video camera (XR/MEGA10-AM or XR/MEGA10 Panasonic) and DVD recorder were used to capture images. Three to five cremasteric venules (25 to 40 μm in diameter) were analysed during playback analysis. A leukocyte was considered to be adherent if it remained stationary for at least 30 seconds, and total leukocyte adhesion was quantified as the number of adherent cells within a 100-μm length of venule. […]

[3] = test system: bone marrow-derived macrophages; test: Internalization of FITC-FSL1/GML; assay type: cell-based, mice
Procedure: Bone marrow-derived macrophages were isolated from wild-type and TLR2−/− mice and cultured on glass coverslips. The cells were incubated on ice for 10 min in the presence of 10 μg/mL FITC-FSL1 or FITC-GML to allow ligands binding and then returned to 37° C. for 60 min. Cells were then fixed for 10 minutes in 4.5% paraformaldehyde and stained for the golgi marker Giantin (1:250, Abcam), and imaged using confocal microscopy.

[4] = severe sepsis; decreased from about 31%; cited from earlier work

Row | Compound | inhibitory properties toward LPS-induced neutrophil emigration [1] | neutrophil recruitment induced by the ligand itself [1] | effect of antagonist pretreatment on LTA and GML inhibition of MIP2-induced neutrophil recruitment [2] | effect of antagonist pretreatment on LTA and GML inhibition of TNFα-induced neutrophil recruitment [1] | other results
1 | Pam2CSK4 | did not exhibit any inhibitory properties | pro-inflammatory |  |  | 
2 | O=C(Nc1ccccc1)c1cc([N+](=O)[O-])ccc1Cl [GW9662] |  |  | abrogated the inhibitory effect of both LTA and GML | abrogated the inhibitory effect of both LTA and GML | 
3 | Pam3CSK4 | did not exhibit any inhibitory properties | pro-inflammatory; also recorded: causes significant neutrophil recruitment into the cremaster tissue |  |  | 
4 | O=C(Nc1ccncc1)c1cc([N+](=O)[O-])ccc1Cl [T0070907] |  |  | abrogated the inhibitory effect of both LTA and GML | abrogated the inhibitory effect of both LTA and GML | 
5 | FSL1 |  |  |  |  | internalization / localization of FITC-labelled ligand ([3]; in the absence of TLR2): substantially inhibited with regard to internalization; localization of internalized FITC-labelled ligand ([3]; wild-type macrophages, 60 min, Giantin stain): much smaller vesicles, which did not co-localize with Giantin
6 | drotrecogin alfa |  |  |  |  | mortality [4]: about 25%

From patent US9422335B2, “Modified toll-like receptor 2 (TLR2) ligands as inhibitors of neutrophil recruitment” (priority 2011, dated 2016)
